Patent publication US20050069907A1, “Methods for using double-mutant RNA polymerases with reduced discrimination between non-canonical and canonical nucleoside triphosphates” (priority 2002, published 2005)
Marks after values point to notes of the source that are not given here.

Key:
[1] = 2′,3′-dideoxy NTP preference (relative specificity kcat/Km NTP vs ddNTP); format: biochemical
Description: Numbers reflect the relative specificity (kcat/Km) for an NTP vs. the corresponding ddNTP. Relative specificities could not be evaluated for the wild-type T7 RNAP because the ddNTPs are such poor substrates, but these relative specificities appear to be at least 150-fold.

pT75 = assay: Activity with NTPs containing different 2′-substituents; format: biochemical; design: unit not given here
Procedure: Activity was determined with pT75 as template but with one of the rNTPs replaced with a dNTP or a 2′-modified NTP. The labeling NTP was UTP (in reactions with 2′-modified CTPs or ATPs) or CTP (in reactions with 2′-modified UTPs). Y639F and Y639M represent enzymes with substitutions of the wild-type (W.T.) tyrosine at position 639 by phenyalanine (F) or methionine (M), respectively.

supercoiled pT75 = assay: rNTP/dNTP selectivity assay: labeled rNTP vs dNTP incorporation with 4 unlabeled rNTPs; format: biochemical
Procedure: Transcription reactions: Transcription reactions were carried out in 40 mM Tris-Cl pH 8.0, 15 mM MgCl2, and 5 mM DTT or 20 mM Manganese Citrate pH 8.0, 5 mM DTT at 37° C. Template, polymerase, and NTP concentrations were as indicated in the legends to the figures and tables. Relative activity determinations were made by taking 4 μl aliquots of reactions at 5, 10, and 20 minute time points and spotting on to DE81 filter paper. Unincorporated nucleotides were separated from incorporated nucleotides by washing the filter paper with 0.5 M KH2PO4 pH 7.0 and retained radioactive nucleotide was quantitated with a Molecular Dynamics phosphorimager. To evaluate rNTP/dNTP selectivity, reactions were run with 4 rNTPs and pT75 as template and α-P^32 rNTPs or α-P^32 dNTPs were used to label the transcripts. The relative rate of incorporation of an rNTP vs. its cognate dNTP was determined from the relative percentages of labeled rNTP vs. dNTP incorporated into DE81 retainable RNA at 5, 10, and 20 minute time points. Apparent miscoding frequencies were determined similarly, though in this instance the template was a single-stranded homopolymer and the reaction contained the complementary unlabeled rNTP, and complementary α-P^32 rNTP or one of the 3 non-complementary α-P^32 rNTPs. The relative percentages of labeled complementary vs. non-complementary rNTPs incorporated at 5, 10 and 20 minute time points gave an apparent miscoding rate. The rNTP/dNTP selectivity assay was used to test the following T7 RNAP mutants for effects on substrate discrimination: D537S, D537E, S539A, R5S1S, D552S, R627S, K631S, L637A, Y639S, Y639F, Y639A, G640A, F644A, G645A, Q649S, […], H811S, H811A, D812A, D812E, D812S, D812N, D879E+ΔF882+ΔA883, D879E+A881T+ΔA883, D879E+F884+A885, D879E+F882Y, D879E+ΔA883, D879E+F882W, D879E.
Relative selectivity of the mutant and W.T. polymerases for dNTPs and rNTPs: FIGS. 1-3 present a qualitative analysis of the structure of the transcripts produced by the W.T. and Y639F polymerases with various combinations of NTPs. […] To obtain a quantitative measure of the relative selectivity of the W.T. and mutant polymerases for dNTPs vs. rNTPs under conditions where transcript structure was not a complicating factor, reactions were carried out in which all 4 rNTPs were present but rNTPs or dNTPs were used to radiolabel the transcripts (see Table I).
Under these conditions the unlabeled rNTPs were present in vast excess relative to the labeling NTPs so labeling dNTPs are almost always incorporated adjacent to rNTPs and into transcripts of nearly uniform rNMP structure. […] This assay was used to screen our collection of T7 RNAP active site mutants for increased dNTP utilization. In this screen dATP incorporation in transcription reactions was examined with all of these mutants using supercoiled pT75 as the template, 4 cold rNTPs, and P32-rATP or P32-dATP to label. […] It has been reported that use of Mn^2+ instead of Mg^2+ decreases substrate discrimination and increases miscoding for a number of polymerases (Tabor and Richardson, 1989; Nivogi and Feldman, 1981). Therefore, the rNTP/dNTP selectivity of the mutant and W.T. enzymes were examined in Mn^2+-citrate buffer (Tabor and Richardson, 1989).

[2] = system: 12 base DNA or RNA primers hybridized to a DNA template; assay: DNA- and RNA-primed synthesis of DNA and RNA; format: biochemical
Description: DNA- and RNA-primed synthesis of DNA and RNA: In the assays described so far de novo initiated synthesis has been examined. T7 RNAP can also extend RNA primers. Therefore, the abilities of both polymerase to carry out DNA or RNA primed synthesis of DNA and RNA (FIG. 5) were examined.
Transcription reactions contained end-labeled 12 base DNA or RNA primers of identical sequence (GGACACGGCGAA, SEQ ID NO: 4) hybridized to a DNA template ([…] TAAGTATCC, SEQ ID NO: 5). Primer-template concentration was 10^-5 M. Reactions contained the indicated polymerases (10^-7 M) and NTPs. NTP concentrations and electrophoresis as in FIG. 1.

[3] = transcripts synthesized in vivo; cited from earlier work
[4] = Mg^2+ buffer, range of 2 experiments

Row | Substance | Activity (pT75; 2′-F-ATP replacing ATP) | Activity (pT75; 2′-F-CTP replacing CTP) | Activity (pT75; 2′-F-UTP replacing UTP) | Activity (pT75; 2′-NH2-ATP replacing ATP) | Activity (pT75; 2′-NH2-CTP replacing CTP) | Activity (pT75; 2′-NH2-UTP replacing UTP) | Activity (pT75; 2′-dATP replacing ATP) | Activity (pT75; 2′-dCTP replacing CTP) | Activity (pT75; 2′-dUTP replacing UTP) | Activity (pT75; ATP) | Activity (pT75; CTP) | Activity (pT75; UTP) | Relative selectivity rCTP/dCTP (supercoiled pT75; Mg^2+ buffer) | Relative selectivity rGTP/dGTP (supercoiled pT75; Mg^2+ buffer) | Relative selectivity rUTP/dTTP (supercoiled pT75; Mg^2+ buffer) | Relative selectivity rATP/dATP (supercoiled pT75; [4]) | Relative selectivity rATP/dATP (supercoiled pT75; Mn^2+ buffer) | Relative selectivity rCTP/dCTP (supercoiled pT75; Mn^2+ buffer) | Relative selectivity rGTP/dGTP (supercoiled pT75; Mn^2+ buffer) | Relative selectivity rUTP/dTTP (supercoiled pT75; Mn^2+ buffer) | also measured
1 | W.T.: wild-type T7 RNA polymerase [reference compound] | 6.6 ± .12 | 3.4 ± .22 | 3.1 ± .14 | 18 ± .39 | 34 ± .86 | 5.9 ± .27 | 2.7 ± .28 | 1.6 ± .16 | 2.4 ± .11 | 100 | 100 | 100 | 110-150 | 51-67 | 22-25 | 72-83 (Mg)* | 6-14 (Mn)* | 4.3-5.1 | 4.4-6.3 | 2.3-2.8 | Relative specificity NTP vs. corresponding ddNTP [1]: at least 150 fold
2 | Y639F: T7 RNAP with wild-type tyrosine at position 639 substituted by phenylalanine | 50 ± 1.4 | 63 ± 3.1 | 73 ± 2.6 | 21 ± .75 | 60 ± 2.5 | 12 ± .41 | 40 ± 1.3 | 57 ± 1.7 | 46 ± 2.4 | 96 ± 3.0 | 103 ± 2.3 | 95 ± 6.7 | 2.4-2.5 | .93-1.6 | 1.7-1.9 | 8.5-10 (Mg)* | .9-1.0 (Mn)* | .55-.80 | .98-.99 | .48-.76 | Extension of DNA and RNA primers with dNTPs less efficient than with rNTPs [2]: ~4 fold; Protein per transcript compared to transcripts synthesized by wild-type enzyme [3]: ½-⅓; Reduction in selectivity for rNTPs over dNTPs relative to W.T., on average (supercoiled pT75): ~20 fold
